According to patent publication US10173971B2, “Picolinamides with fungicidal activity” (DOW AGROSCIENCES LLC, priority 2014, dated 2019):
Where two headings read alike, the source gives them in different places.

What was measured:
Puccinia triticina = assay: Fungicidal activity: wheat brown rust (PUCCRT), wheat seedlings, booth sprayer to run-off or track spray; assay type: in vivo; details: for pest or weed control at 121.5 g/ha: Low-Volume Cereal Activity at 121.5 g/H; for pest or weed control at 100 ppm: High-Volume Cereal Activity at 100 ppm
Protocol: All fungicides were evaluated using the aforementioned method for their activity vs. all target diseases. Wheat leaf blotch and brown rust activity were also evaluated using track spray applications, in which case the fungicides were formulated as EC formulations, containing 0.1% Trycol 5941 in the spray solutions. Wheat plants (variety Yuma) were grown from seed in a greenhouse in 50% mineral soil/50% soil-less Metro mix until the first leaf was fully emerged, with 7-10 seedlings per pot. These plants were inoculated with an aqueous spore suspension of Puccinia triticina either prior to or after fungicide treatments. […] The plants were then transferred to a greenhouse set at 24° C. for disease to develop. Fungicide formulation, application and disease assessment followed the procedures as described in the Example A.

Zymoseptoria tritici = assay: Fungicidal activity: leaf blotch of wheat (SEPTTR), wheat seedlings, booth sprayer to run-off or track spray; assay type: in vivo; details: for pest or weed control at 121.5 g/ha: Low-Volume Cereal Activity at 121.5 g/H; for pest or weed control at 100 ppm: High-Volume Cereal Activity at 100 ppm
Protocol: All fungicides were evaluated using the aforementioned method for their activity vs. all target diseases. Wheat leaf blotch and brown rust activity were also evaluated using track spray applications, in which case the fungicides were formulated as EC formulations, containing 0.1% Trycol 5941 in the spray solutions. Wheat plants (variety Yuma) were grown from seed in a greenhouse in 50% mineral soil/50% soil-less Metro mix until the first leaf was fully emerged, with 7-10 seedlings per pot. These plants were inoculated with an aqueous spore suspension of Zymoseptoria tritici either prior to or after fungicide treatments. After inoculation the plants were kept in 100% relative humidity (one day in a dark dew chamber followed by two to three days in a lighted dew chamber at 20° C.) to permit spores to germinate and infect the leaf. The plants were then transferred to a greenhouse set at 20° C. for disease to develop. When disease symptoms were fully expressed on the 1st leaves of untreated plants, infection levels were assessed on a scale of 0 to 100 percent disease severity. Percent disease control was calculated using the ratio of disease severity on treated plants relative to untreated plants.

[1] = 24 h, 1 Day Protectant, read-out: PUCCRT 1DP
[2] = 72 h, 3 Day Curative, read-out: PUCCRT 3DC
[3] = 24 h, 1 Day Protectant, read-out: SEPTTR 1DP
[4] = 72 h, 3 Day Curative, read-out: SEPTTR 3DC
[5] = 3DC (Day Curative), read-out: SEPTTR 3DC
[6] = 3DC (Day Curative), read-out: PUCCRT 3DC

Row | Structure (SMILES) | pest or weed control at 121.5 g/ha (Puccinia triticina; [1]) | pest or weed control at 121.5 g/ha (Puccinia triticina; [2]) | pest or weed control at 121.5 g/ha (Zymoseptoria tritici; [3]) | pest or weed control at 121.5 g/ha (Zymoseptoria tritici; [4]) | pest or weed control at 100 ppm (Puccinia triticina; [1]) | pest or weed control at 100 ppm (Zymoseptoria tritici; [3]) | pest or weed control at 100 ppm (Zymoseptoria tritici; [5]) | pest or weed control at 100 ppm (Puccinia triticina; [6])
1 | COC(=O)[C@@H](Cc1ccccc1)[C@H](C)OC(=O)[C@H](C)NC(=O)c1nccc(OC)c1OCOC(C)=O [compound 185] | 0 to 80% | 0 to 80% | 0 to 80% |  |  |  |  | 
2 | CC[C@H](NC(=O)c1nccc(OC)c1OC(C)=O)C(=O)O[C@@H](C)C(Cc1cccc(OC)c1)Cc1cccc(OC)c1 [compound 271] | 0 to 80% |  | 0 to 80% |  |  |  |  | 
3 | CCCC[C@H](c1ccccc1)[C@H](C)OC(=O)[C@H](C)NC(=O)c1nccc(OC)c1OCOC(=O)C(C)C [compound 200] | 80 to 100% | 80 to 100% | 80 to 100% | 80 to 100% |  |  |  | 
4 | COc1ccc(CC(Cc2ccc(OC)cc2)[C@H](C)OC(=O)[C@H](C)NC(=O)c2nccc(OC)c2OC(C)=O)cc1 [compound 272] | 0 to 80% | 0 to 80% | 80 to 100% |  |  |  |  | 
5 | COc1ccnc(C(=O)N[C@@H](C)C(=O)O[C@@H](C)[C@H](Cc2ccc3ccccc3c2)c2ccccc2)c1OC(C)=O [compound 224] | 0 to 80% |  | 0 to 80% | 0 to 80% |  |  |  | 
6 | CCOC[C@H](Oc1ccc(C)cc1)[C@@H](Cc1ccc(F)cc1)[C@H](C)OC(=O)[C@H](C)NC(=O)c1nccc(OC)c1OCOC(C)=O [compound 177] | 80 to 100% | 0 to 80% | 80 to 100% | 0 to 80% |  |  |  | 
7 | COc1ccnc(C(=O)N[C@@H](C)C(=O)O[C@@H](C)[C@H](Cc2ccc3ccccc3c2)c2ccccc2)c1O [compound 130] |  |  |  |  | 80 to 100% | 80 to 100% | 0 to 80% | 
8 | CCCOC[C@@H](Cc1ccccc1)[C@H](C)OC(=O)C(C)(C)NC(=O)c1nccc(OC)c1OCOC(C)=O [compound 171] |  |  |  |  |  | 0 to 80% | 0 to 80% | 0 to 80%
9 | COc1ccnc(C(=O)N[C@@H](C)C(=O)OC(C)C(Cc2ccccc2)Cc2ccccc2)c1OCOC(C)=O (stereo partly drawn) [compound 265] | 80 to 100% | 0 to 80% | 80 to 100% | 0 to 80% |  |  |  | 
10 | COc1ccnc(C(=O)N[C@@H](C)C(=O)OC(C)C(Cc2ccccc2)Cc2ccccc2)c1OC(C)=O (stereo partly drawn) [compound 260] | 80 to 100% | 0 to 80% | 80 to 100% | 0 to 80% |  |  |  | 
11 | COc1ccc(CC(Cc2ccc(OC)cc2)[C@H](C)OC(=O)[C@H](C)NC(=O)c2nccc(OC)c2O)cc1 [compound 154] |  |  |  |  | 80 to 100% | 80 to 100% |  | 
12 | COc1ccnc(C(=O)N[C@@H](C)C(=O)O[C@@H](C)[C@@H](COCCC(C)C)Cc2ccccc2)c1O [compound 141] |  |  |  |  | 0 to 80% | 80 to 100% | 0 to 80% | 0 to 80%
13 | COc1ccc(C[C@@H]([C@H](C)OC(=O)[C@H](C)NC(=O)c2nccc(OC)c2OCOC(C)=O)C(C)(C)OCC2CC2)cc1 [compound 278] | 80 to 100% | 0 to 80% | 0 to 80% | 0 to 80% |  |  |  | 
14 | CC[C@@H](Oc1ccccc1)[C@@H](Cc1ccccc1)[C@H](C)OC(=O)[C@H](C)NC(=O)c1nccc(OC)c1OCOC(C)=O [compound 192] | 80 to 100% | 80 to 100% | 80 to 100% | 80 to 100% |  |  |  | 
15 | CCCO[C@@H](CC)[C@@H](Cc1ccccc1)[C@H](C)OC(=O)[C@H](C)NC(=O)c1nccc(OC)c1OCOC(C)=O [compound 168] | 80 to 100% | 80 to 100% | 80 to 100% | 0 to 80% | 80 to 100% | 80 to 100% | 80 to 100% | 80 to 100%
16 | COc1ccnc(C(=O)N[C@@H](C)C(=O)O[C@@H](C)[C@@H](COCCC(C)C)Cc2ccccc2)c1OC(C)=O [compound 248] | 80 to 100% | 0 to 80% |  | 0 to 80% |  |  |  | 

Row | Structure (SMILES) | pest or weed control at 121.5 g/ha (Puccinia triticina; [1]) | pest or weed control at 121.5 g/ha (Puccinia triticina; [2]) | pest or weed control at 121.5 g/ha (Zymoseptoria tritici; [3]) | pest or weed control at 121.5 g/ha (Zymoseptoria tritici; [4]) | pest or weed control at 100 ppm (Puccinia triticina; [1]) | pest or weed control at 100 ppm (Zymoseptoria tritici; [3]) | pest or weed control at 100 ppm (Zymoseptoria tritici; [5]) | pest or weed control at 100 ppm (Puccinia triticina; [6])
17 | CCCOC(C)(C)[C@@H](Cc1ccc(OC)c(Cc2ccccc2)c1)[C@H](C)OC(=O)[C@H](C)NC(=O)c1nccc(OC)c1O [compound 146] |  |  |  |  | 0 to 80% | 0 to 80% | 0 to 80% | 
18 | CCCO[C@@H](CC)[C@@H](Cc1ccccc1)[C@H](C)OC(=O)[C@@H](C)NC(=O)c1nccc(OC)c1O [compound 94] |  |  |  |  | 80 to 100% | 0 to 80% | 0 to 80% | 80 to 100%
19 | C=C[C@H](Cc1ccc(C(F)(F)F)cc1)[C@@H](Cc1ccc(F)cc1)[C@H](C)OC(=O)[C@H](COC)NC(=O)c1nccc(OC)c1OC(C)=O [compound 178] | 0 to 80% | 0 to 80% | 0 to 80% | 0 to 80% |  |  |  | 
20 | CC[C@H](Oc1ccccc1)[C@@H](Cc1ccccc1)[C@H](C)OC(=O)[C@H](C)NC(=O)c1nccc(OC)c1O [compound 117] |  |  |  |  | 80 to 100% | 80 to 100% | 0 to 80% | 80 to 100%
21 | CC[C@H](Oc1ccccc1)[C@@H](Cc1ccccc1)[C@H](C)OC(=O)[C@H](C)NC(=O)c1nccc(OC)c1OC(C)=O [compound 193] | 80 to 100% | 80 to 100% | 80 to 100% | 0 to 80% |  |  |  | 
22 | CCCO[C@H](CC)[C@@H](Cc1ccccc1)[C@H](C)OC(=O)[C@@H](C)NC(=O)c1nccc(OC)c1O [compound 96] |  |  |  |  | 80 to 100% | 80 to 100% | 0 to 80% | 80 to 100%
23 | CCCO[C@H](CC)[C@@H](Cc1ccccc1)[C@H](C)OC(=O)[C@@H](C)NC(=O)c1nccc(OC)c1OCOC(C)=O [compound 165] |  |  |  |  | 0 to 80% | 80 to 100% | 0 to 80% | 80 to 100%
24 | COc1ccnc(C(=O)N[C@@H](C)C(=O)O[C@@H](C)[C@H](Cc2ccccc2)C(C)(C)OC)c1OCOC(C)=O [compound 245] | 80 to 100% | 80 to 100% |  | 0 to 80% |  |  |  | 
25 | CCCOC[C@@H](Cc1ccccc1)[C@H](C)OC(=O)[C@H](C)NC(=O)c1nccc(OC)c1O [compound 93] |  |  |  |  | 80 to 100% | 0 to 80% | 80 to 100% | 80 to 100%
26 | CCCOC(C)(C)[C@@H](Cc1ccc(OC)c(Cc2ccccc2)c1)[C@H](C)OC(=O)[C@H](C)NC(=O)c1nccc(OC)c1OCOC(C)=O [compound 259] | 0 to 80% |  |  | 0 to 80% |  |  |  | 
27 | CCOC[C@H](Oc1ccc(C)cc1)[C@@H](Cc1ccc(F)cc1)[C@H](C)OC(=O)[C@H](C)NC(=O)c1nccc(OC)c1O [compound 105] |  |  |  |  | 80 to 100% | 0 to 80% | 0 to 80% | 0 to 80%
28 | CCCOC[C@@H](Cc1ccccc1)[C@H](C)OC(=O)CNC(=O)c1nccc(OC)c1OCOC(C)=O [compound 175] | 80 to 100% | 80 to 100% |  | 0 to 80% |  |  |  | 
29 | COc1ccnc(C(=O)N[C@@H](C)C(=O)O[C@@H](C)[C@H](Cc2ccccc2)C(C)(C)OC)c1O [compound 137] |  |  |  |  |  |  | 0 to 80% | 0 to 80%
30 | COc1ccnc(C(=O)N[C@@H](C)C(=O)O[C@@H](C)[C@H](CCC(C)C)c2ccccc2)c1OCOC(=O)C(C)C [compound 214] | 80 to 100% | 80 to 100% | 80 to 100% | 80 to 100% |  |  |  | 
31 | COc1ccnc(C(=O)N[C@@H](C)C(=O)O[C@@H](C)[C@H](Cc2ccc3ccccc3c2)c2ccccc2)c1OCOC(C)=O [compound 225] | 0 to 80% | 0 to 80% | 0 to 80% | 0 to 80% |  |  |  | 
